What was measured:
Assay type in all cases: biochemical
[1] = target: T1, (MOUSE)NAT2, murine arylamine N-acetyltransferase Type 2 (Mus musculus, UniProt P50295); assay: real-time 1H-NMR and DTNB assay of hydrolysis to CoA and acetate
T1 construct: pure recombinant
T1 sequence (P50295 1-290): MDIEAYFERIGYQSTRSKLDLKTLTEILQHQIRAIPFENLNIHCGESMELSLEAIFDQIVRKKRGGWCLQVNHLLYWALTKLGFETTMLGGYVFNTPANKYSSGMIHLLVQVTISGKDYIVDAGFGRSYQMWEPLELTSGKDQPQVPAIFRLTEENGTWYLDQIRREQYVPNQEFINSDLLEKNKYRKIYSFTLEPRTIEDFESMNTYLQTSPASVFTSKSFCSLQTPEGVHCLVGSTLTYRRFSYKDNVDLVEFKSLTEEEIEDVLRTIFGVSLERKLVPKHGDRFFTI

[2] = target: T2, (HUMAN)NAT1, human arylamine N-acetyltransferase Type 1 (Homo sapiens, UniProt P18440); assay: HPLC time course of hydrolysis to CoA
T2 construct: pure recombinant
T2 sequence (P18440 1-290): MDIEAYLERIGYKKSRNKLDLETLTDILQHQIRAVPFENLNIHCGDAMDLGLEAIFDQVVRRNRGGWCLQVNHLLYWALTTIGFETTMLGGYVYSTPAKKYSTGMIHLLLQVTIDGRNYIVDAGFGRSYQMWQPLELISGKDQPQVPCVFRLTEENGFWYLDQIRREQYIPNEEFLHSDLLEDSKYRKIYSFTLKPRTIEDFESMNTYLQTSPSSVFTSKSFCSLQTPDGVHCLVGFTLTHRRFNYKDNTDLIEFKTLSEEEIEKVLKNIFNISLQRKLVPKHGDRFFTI

[3] = target: T1, (MOUSE)NAT2, murine arylamine N-acetyltransferase Type 2; assay: DTNB colorimetric assay of folate-dependent AcCoA hydrolysis, dose response
Source text: DTNB colorimetric assay of folate-dependent AcCoA hydrolysis, dose response on (MOUSE)NAT2, murine arylamine N-acetyltransferase Type 2 | its concentration dependence was characterised (Figure 6C).

[4] = target: T1, (MOUSE)NAT2, murine arylamine N-acetyltransferase Type 2; assay: folate concentration dependence of AcCoA hydrolysis (Michaelis-Menten fit); real-time 1H-NMR of turnover
[5] = target: T2, (HUMAN)NAT1, human arylamine N-acetyltransferase Type 1; assay: folate concentration dependence of AcCoA hydrolysis (Michaelis-Menten fit); HPLC time course
[6] = target: T1, (MOUSE)NAT2, murine arylamine N-acetyltransferase Type 2; assay: DTNB colorimetric hydrolysis assay

## CC(=O)SCCNC(=O)CCNC(=O)[C@H](O)C(C)(C)COP(=O)(O)OP(=O)(O)OC[C@H]1O[C@@H](n2cnc3c(N)ncnc32)[C@H](O)[C@@H]1OP(=O)(O)O [acetyl Coenzyme A]
[1]
  specific rate of hydrolysis to CoA and acetate: 360 µM/s/mg
[2]
  specific rate of hydrolysis to CoA: 583 µM/s/mg

## Cc1cc(C)cc(NC2=C(NS(=O)(=O)c3ccccc3)C(=O)c3ccccc3C2=O)c1 [compound 1, naphthoquinone 1]
[3]
  IC50: 0.14 µM

## Nc1nc2ncc(CNc3ccc(C(=O)N[C@@H](CCC(=O)O)C(=O)O)cc3)nc2c(=O)[nH]1 [folate]
[4]
  Kd: ~71 µM
[5]
  Kd: ~75 µM

## CCC(=O)SCCNC(=O)CCNC(=O)[C@H](O)C(C)(C)COP(=O)(O)OP(=O)(O)OC[C@H]1O[C@@H](n2cnc3c(N)ncnc32)[C@H](O)[C@@H]1OP(=O)(O)O [n-propionyl CoA]
[6]
  specific acetyl-CoA hydrolysis rate: 290 µM/s/mg
